Data published in US12637435B2, “Nitrogen-containing heterocyclic compound or salt thereof, use thereof, and intermediate thereof” (FUJIFILM Corporation, priority 2020, dated 2026).

What was measured:
[1] = biological target: T1, recombinant human DHODH (Homo sapiens, UniProt Q02127); assay: DHODH enzyme reaction inhibition test (DCIP-coupled assay); format: biochemical; conditions: recombinant human DHODH 0.175 μg/mL, DCIP absorbance 600 nm, 50 minutes, pH 8.0; read-out: Enzyme reaction inhibitory effect (IC50)
T1 construct: DHODH, 31-395aa, Human, His tag, E. coli, ATGP1615; His tag; purchased ATGen Co. Ltd. ATGP1615; host or cells: E. coli
T1 sequence (Q02127 31-395): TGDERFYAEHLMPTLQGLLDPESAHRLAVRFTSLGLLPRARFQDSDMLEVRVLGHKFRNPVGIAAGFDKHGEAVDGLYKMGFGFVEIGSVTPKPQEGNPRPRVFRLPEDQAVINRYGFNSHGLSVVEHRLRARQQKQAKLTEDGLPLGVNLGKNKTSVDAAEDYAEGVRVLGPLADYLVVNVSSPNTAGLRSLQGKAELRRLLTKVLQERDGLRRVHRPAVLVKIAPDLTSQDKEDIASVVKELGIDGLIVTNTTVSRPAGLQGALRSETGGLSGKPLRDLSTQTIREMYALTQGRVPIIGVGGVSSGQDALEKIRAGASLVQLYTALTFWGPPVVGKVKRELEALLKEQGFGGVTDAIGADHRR
Procedure: The DHODH enzyme assay was carried out with reference to “Benjamin Bader, Wolfgang Knecht, Markus Fries, and Monika Loffler, Expression, Purification, and Characterization of Histidine-Tagged Rat and Human Flavoenzyme Dihydroorotate Dehydrogenase, Protein Expression and Purification, 1998, 13, 414-422.”
The DHODH activity was evaluated using an enzyme assay system that is coupled with an assay in which a blue coloring agent 2,6-dichlorophenolindophenol (DCIP, available from MP Biomedicals, LLC, MP150118) is quenched. Purified recombinant human DHODH (DHODH, 31-395aa, Human, His tag, E. coli, ATGP1615) was purchased from ATGen Co. Ltd. The enzyme assay was carried out in a 384-well plate using a buffer solution containing 100 mmol/L Hepes (available from Dojindo Laboratories, 342-01375), 400 mmol/L NaCl (available from FUJIFILM Wako Pure Chemical Corporation, 191-01665), 10% Glycerol (available from FUJIFILM Wako Pure Chemical Corporation, 075-00616), 0.05% Triton X-100 (available from Sigma-Aldrich Co., LLC, T8787-100ML), 0.2 mmol/L Ubiquinone-10 (available from FUJIFILM Wako Pure Chemical Corporation, 216-00761), 0.1 mmol/L DHO (L-dihydroorotic acid, available from Sigma-Aldrich Co., LLC, D7128), 0.5% DMSO (dimethylsulfoxide, available from FUJIFILM Wako Pure Chemical Corporation, 047-29353), 0.175 μg/mL DHODH, and 0.12 mmol/L DCIP and having a pH adjusted to 8.0 by adding 5 mol/L potassium hydroxide (available from FUJIFILM Wako Pure Chemical Corporation, 168-21815). A test compound with a predetermined concentration was added using Biomek NX (available from Beckman Coulter Inc.), and the enzyme reaction was started by adding the substrate. The enzyme activity was assessed by measuring the decrease in DCIP absorbance (600 nm) for 50 minutes using an EnVision plate-reading spectrophotometer (available from PerkinElmer, Inc.).
The enzyme reaction inhibition rate at each test compound concentration was determined, and the 50% enzyme reaction inhibition concentration [IC50 (nmol/L)] was calculated using XLfit. Enzyme reaction inhibition rate (%)=(amount of luminescence in test compound-added well)/(amount of luminescence in DMSO-added well)×100
The abbreviations in the table have the following meanings. • A: IC50 value<10 nmol/L • B: 10 nmol/L≤IC50 value<100 nmol/L • C: 100 nmol/L≤IC50 value

[2] = test system: human myeloid leukemia cell line HL60; assay: Cell growth test, HL60 (CellTiter-Glo); format: cell-based; conditions: HL-60, 72 h, HL60 cells, 3 days, CellTiter-Glo luminescence, read-out: Cell growth inhibitory effect (GI50)
Procedure: The cell growth test was carried out using the human myeloid leukemia cell line HL60 (available from ATCC, CRL-240). As a culture medium of HL60 cells, RPMI 1640 (available from FUJIFILM Wako Pure Chemical Corporation, 189-02025) supplemented with 10% fetal bovine serum (available from Thermo Fisher Scientific, Inc., 10437-028), and 1% penicillin-streptomycin (10,000 U/mL, available from Thermo Fisher Scientific, Inc., 15140-122) was used. HL60 cells were seeded on a 384-well plate (available from Corning Inc., 4588) at a cell density of 1×10^3 cells/20 μL/well. After culturing overnight, 5 μL of the test compound having a predetermined concentration was added, and 3 days later, 25 μL of CellTiter-Glo (registered trademark) Luminescent Cell Viability Assay (available from Promega Corporation, G7573) was added, and then the amount of luminescence was measured using an EnVision plate reader (available from PerkinElmer, Inc.). Since the amount of luminescence is proportional to the intracellular concentration of adenosine triphosphate (ATP), the amount of luminescence was used as an indicator of the number of viable cells. The growth inhibitory concentration for each test compound concentration was calculated by the following expression.
The growth inhibition rate at each test compound concentration was determined, and the 50% growth inhibitory concentration [GI50 (nmol/L)] was calculated using XLfit. Growth inhibition rate (%)=(amount of luminescence in test compound-added well)/(amount of luminescence in DMSO-added well)×100
The abbreviations in the table have the following meanings. • A: GI50 value<100 nmol/L • B: 100 nmol/L≤GI50 value<1,000 nmol/L • C: 1,000 nmol/L≤GI50 value

[3] = test system: HL60 subcutaneous tumor; assay: In vivo drug efficacy test in cancer-bearing mouse model with subcutaneous transplantation of HL60; conditions: HL60 subcutaneous xenograft, female NOD/scid mice, oral 2.5 to 10 mg/kg once a day for 10 to 12 days
Description: (Drug Efficacy Test in Cancer-Bearing Mouse Model with Subcutaneous Transplantation of HL60)
The human acute myeloid leukemia cell line HL60 (available from JCRB) was suspended in a mixture of RPMI-1640 culture medium and Matrigel (available from Corning Inc.), and then subcutaneously transplanted into 6-week-old female NOD/scid mice (available from CLEA Japan, Inc.). The test compound was dispersed in a solvent (0.5% aqueous methylcellulose solution), and from the time when tumor engraftment was visually confirmed, the test compound was orally administered to mice at a dose of 2.5 to 10 mg/kg once a day for 10 to 12 days. A solvent administration group to which a 0.5% aqueous methylcellulose solution was administered was provided as a negative control. The tumor diameter was measured over time and the tumor volume was calculated. The tumor volume was calculated by measuring the major axis and the minor axis of the tumor and using the following expression. Tumor volume (mm^3)=[major axis (mm)×minor axis (mm)×minor axis (mm)]/2
T/C (%) was calculated from the average tumor volume of each group by the following expression, and the drug efficacy was evaluated. T/C (%)=(average tumor volume of drug-administered group)/(average tumor volume of solvent-administered group)×100%

## N#Cc1ccc(-c2cccc(Nc3ncc(C4CC4)nc3C(=O)NS(N)(=O)=O)c2OCC(F)(F)F)cc1 [Example 3-41]
[1]
  IC50: < 10 nM
[2]
  GI50: < 100 nM
[3]
  tumor growth inhibition rate (T/C from tumor volume): excellent tumor growth inhibition rate

## CS(=O)(=O)NC(=O)c1nc(C2CC2)cnc1Nc1cccc(C2=CCOCC2)c1OCC(F)(F)F [Example 1-2, 6-cyclopropyl-3-((3-(3,6-dihydro-2H-pyran-4-yl)-2-(2,2,2-trifluoroethoxy)phenyl)amino)-N-(methylsulfonyl)pyrazine-2-carboxamide]
[1]
  IC50: < 10 nM
[2]
  GI50: < 100 nM
[3]
  tumor growth inhibition rate (T/C from tumor volume): excellent tumor growth inhibition rate

## CONC(=O)c1nc(C2CC2)cnc1Nc1cccc(C2=CCOCC2)c1OCC(F)(F)F [Example 3-5]
[1]
  IC50: < 10 nM
[2]
  GI50: < 100 nM

## C[C@H](Oc1c(Nc2ncc(C3CC3)nc2C(=O)NS(N)(=O)=O)cccc1C1=CCOCC1)C(F)(F)F [Example 3-27]
[1]
  IC50: < 10 nM
[2]
  GI50: < 100 nM

## O=C(O)c1cc(C2CC2)cnc1Nc1cc(F)cc(C2CCOCC2)c1OC(F)F [Example 2-3]
[1]
  IC50: < 10 nM
[2]
  GI50: < 100 nM

## N#Cc1ccc(-c2cccc(Nc3ncc(C4CC4)nc3C(=O)NS(N)(=O)=O)c2OC(F)F)cc1 [Example 3-52]
[1]
  IC50: 10 to 100 nM
[2]
  GI50: 100 to 1000 nM

## N#CNC(=O)c1nc(C2CC2)cnc1Nc1cccc(-c2ccc(C#N)cc2)c1OCC(F)(F)F [Example 3-33]
[1]
  IC50: < 10 nM
[2]
  GI50: < 100 nM

## C[C@H](Oc1c(Nc2ncc(C3CC3)nc2C(=O)NC#N)cccc1C1CCOCC1)C(F)(F)F [Example 3-14]
[1]
  IC50: < 10 nM
[2]
  GI50: < 100 nM

## CS(=O)(=O)NC(=O)c1nc(C2CC2)cnc1Nc1cccc(C2CCOCC2)c1OCC(F)(F)F [Example 3-30]
[1]
  IC50: < 10 nM
[2]
  GI50: < 100 nM
[3]
  tumor growth inhibition rate (T/C from tumor volume): excellent tumor growth inhibition rate

## N#CNC(=O)c1cc(C2CC2)cnc1Nc1cccc(C2CCOCC2)c1OCC(F)(F)F [Example 3-6]
[1]
  IC50: < 10 nM
[2]
  GI50: < 100 nM

## NS(=O)(=O)NC(=O)c1nc(C2CC2)cnc1Nc1cc(F)cc(C2CCOCC2)c1OC(F)F [Example 3-53]
[1]
  IC50: < 10 nM
[2]
  GI50: < 100 nM

## CC(C)c1cnc(Nc2cccc(C3=CCOCC3)c2OCC(F)(F)F)c(C(=O)NS(C)(=O)=O)n1 [Example 3-65]
[1]
  IC50: < 10 nM
[2]
  GI50: 100 to 1000 nM

## C[C@H](Oc1c(Nc2ccc(C3CC3)cc2C(=O)NS(C)(=O)=O)cncc1C1=CCOCC1)C(F)(F)F [Example 3-25]
[1]
  IC50: 10 to 100 nM
[2]
  GI50: 100 to 1000 nM

## CCCc1c(Nc2ncc(C3CC3)nc2C(=O)NS(N)(=O)=O)cccc1C1CCOCC1 [Example 3-26]
[1]
  IC50: < 10 nM
[2]
  GI50: < 100 nM

## N#Cc1ccc(-c2cccc(Nc3ncc(C4CC4)cc3C(=O)NS(N)(=O)=O)c2OCC(F)(F)F)cc1 [Example 3-37]
[1]
  IC50: < 10 nM
[2]
  GI50: < 100 nM

## N#Cc1ccc(-c2cccc(Nc3ncc(C4CC4)cc3C(=O)O)c2OCC(F)(F)F)cc1 [Example 2-7]
[1]
  IC50: < 10 nM
[2]
  GI50: < 100 nM

## NS(=O)(=O)NC(=O)c1cc(C2CC2)cnc1Nc1cccc(C2CCOCC2)c1OCC(F)(F)F [Example 3-35]
[1]
  IC50: < 10 nM
[2]
  GI50: < 100 nM

## CS(=O)(=O)NC(=O)c1cc(C2CC2)cnc1Nc1cccc(C2=CCOCC2)c1OCC(F)(F)F [Example 3-24]
[1]
  IC50: < 10 nM
[2]
  GI50: < 100 nM
